Laboratory results taken from patent US20040076974A1, “Liver necrosis predictive genes” (priority 2002, published 2004).
Values joined by “and” are separate entries in the source; they are usually repeats but may differ in a detail not shown here. Equal values may be shown once. Read-outs that look alike come from different tables or passages of the source.

Tested on: toxicologically relevant rat genes (rat CT array)
[1] = 24 h, dose 20, ratio treatment/control, listed as PBARB
[2] = 24 h, dose 80, ratio treatment/control, listed as PBARB

CCC1(c2ccccc2)C(=O)NC(=O)NC1=O [phenobarbital]
3-hydroxyisobutyrate dehydrogenase [1]: 1.08 and 1.006 | 14-3-3 zeta [1]: 1.208 and 1.207 | 17-beta hydroxysteroid dehydrogenase, type 2 [1]: 1.581 and 1.324 | 60S ribosomal protein L6 [1]: 1.352 and 1.202 | ATPase inhibitor (rat mitochondrial IF1 protein) [1]: 0.6195 and 0.719 | Alpha 1 - inhibitor III [1]: 0.5583 and 0.815 | Alpha-2-macroglobulin [1]: 0.7668 and 0.9845 | Bax (alpha) [1]: 1.204 and 1.029 | Beta-actin [1]: 1.31 and 1.008 | Calpactin I heavy chain [1]: 1.101 and 1.191 | Carbamyl phosphate synthetase I [1]: 0.7852 and 0.892 | Carbonic anhydrase III [1]: 0.977 and 0.617 | Carbonyl reductase [1]: 0.9613 and 0.916 | Cathepsin L, sequence 2 [1]: 1.563 and 1.367 | Cofilin [1]: 0.9117 | Cyclin G [1]: 1 | DNA polymerase beta [1]: 1.056 | Dynamin-1 (D100) [1]: 0.8477 and 0.8322 | Endogenous retroviral sequence, 5′ and 3′ LTR [1]: 0.9945 and 0.7515 | Enolase alpha [1]: 1.238 and 0.9827 | Epidermal growth factor [1]: 0.8761 and 0.9811 | Equilbrative nitrobenzylthioinosine-sensitive nucleoside transporter [1]: 1.018 and 0.7905 | Extracellular-signal-regulated kinase 1 [1]: 1.131 and 0.7366 | Fas antigen [1]: 1.246 and 1.226 | Gadd45 [1]: 1.009 and 1.065 | Gadd153 [1]: 1.013 and 1.011 | Gamma-actin, cytoplasmic [1]: 1.054 and 0.8811 | Glucose-regulated protein 78 [1]: 1.261 and 1.059 | Heme oxygenase [1]: 0.9438 and 0.9315 | Hepatic lipase [1]: 0.6998 and 0.9047 | ID-1 [1]: 0.8693 and 1.008 | IgE binding protein [1]: 0.8925 and 0.9114 | IkB-a [1]: 1.305 and 0.9599 | Insulin-like growth factor I [1]: 0.7485 and 0.9327 | Insulin-like growth factor binding protein 1 [1]: 1.727 and 1.357 | Insulin-like growth factor binding protein 3 [1]: 0.8872 and 0.9985 | Integrin beta1 [1]: 1.272 and 1.092 | L-gulono-gamma-lactone oxidase [1]: 1.051 and 0.8183 | Liver fatty acid binding protein [1]: 1.109 and 1.478 | MAP kinase kinase [1]: 1.185 | Macrophage inflammatory protein-2 alpha [1]: 1.188 and 1.009 | Matrin F/G [1]: 1.181 and 1.074 | Matrix metalloproteinase-1 [1]: 1.164 | Melanoma-associated antigen ME491 [1]: 0.9925 and 1.119 | Monocyte chemotactic protein receptor (CCR2) [1]: 1.134 | Multidrug resistant protein-2 [1]: 1.635 and 1.128 | N-hydroxy-2-acetylaminofluorene sulfotransferase (ST1C1) [1]: 0.9899 and 0.8091 | Organic anion transporter 3 [1]: 1.248 and 1.132 | Organic cation transporter 3 [1]: 1.276 and 1.184 | Ornithine decarboxylase [1]: 1.253 and 1.099 | PAR interacting protein [1]: 1.254 and 1.247 | Phase-1 RCT 252 [1]: 0.9399 | Phase-1 RCT-15 [1]: 1.589 | Phase-1 RCT-33 [1]: 1.471 | Phase-1 RCT-36 [1]: 1.441 | Phase-1 RCT-39 [1]: 1.098 and 0.9997 | Phase-1 RCT-48 [1]: 0.8561 | Phase-1 RCT-49 [1]: 0.9102 | Phase-1 RCT-50 [1]: 1.003 and 0.9822 | Phase-1 RCT-83 [1]: 0.8335 | Phase-1 RCT-88 [1]: 0.963 | Phase-1 RCT-102 [1]: 0.6239 | Phase-1 RCT-117 [1]: 0.7039 | Phase-1 RCT-123 [1]: 0.9541 | Phase-1 RCT-127 [1]: 0.7569 | Phase-1 RCT-128 [1]: 0.7394 and 0.7417 | Phase-1 RCT-137 [1]: 0.7926 | Phase-1 RCT-179 [1]: 0.8634 and 0.9704 | Phase-1 RCT-181 [1]: 0.9556 | Phase-1 RCT-182 [1]: 0.8988 | Phase-1 RCT-189 [1]: 0.9743 | Phase-1 RCT-191 [1]: 1.518 and 1.291 | Phase-1 RCT-213 [1]: 1.105 | Phase-1 RCT-239 [1]: 0.8651 | Phase-1 RCT-242 [1]: 0.9504 | Phase-1 RCT-256 [1]: 0.9833 | Phase-1 RCT-258 [1]: 1.096 | Phase-1 RCT-264 [1]: 0.5841 | Phase-1 RCT-288 [1]: 0.674 | Proliferating cell nuclear antigen gene [1]: 1.31 and 0.9115 | Ribosomal protein L13A [1]: 1.101 and 1.176 | Ribosomal protein S8 [1]: 1.41 and 1.396 | Senescence marker protein-30 [1]: 0.7967 and 0.7544 | Sodium/bile acid cotransporter [1]: 1.606 and 1.619 | Superoxide dismutase Mn [1]: 1.251 and 1.032 | Thymosin beta-10 [1]: 1.095 | Transthyretin [1]: 0.579 and 0.7326 | Ubiquitin conjugating enzyme (RAD 6 homologue) [1]: 1.219 and 1.207 | Uncoupling protein 2 [1]: 1.028 and 0.9917 | Zinc finger protein [1]: 1.033 and 1.014 | c-jun [1]: 0.8724 and 0.8417 | c-myc [1]: 1.263 and 0.7701 | p53 [1]: 1.141 and 1.123 | {Ribosomal protein L6} [1]: 1.13 and 0.9995 | 3-hydroxyisobutyrate dehydrogenase [2]: 0.9364 and 1.012 and 0.9868 | 14-3-3 zeta [2]: 1.349 and 1.439 and 1.37 | 17-beta hydroxysteroid dehydrogenase, type 2 [2]: 0.7562 and 0.7908 and 0.9571 | 60S ribosomal protein L6 [2]: 1.307 and 1.425 | ATPase inhibitor (rat mitochondrial IF1 protein) [2]: 0.6848 and 0.7077 and 0.6801 | Aldehyde dehydrogenase, microsomal [2]: 1.087 and 1.048 | Alpha 1 - inhibitor III [2]: 0.5856 and 0.4905 and 0.5622 | Alpha-2-macroglobulin [2]: 0.9113 and 0.8593 and 0.9766 | Bax (alpha) [2]: 1.058 and 1.091 and 1.122 | Beta-actin [2]: 1.224 and 1.246 and 1.145 | Calpactin I heavy chain [2]: 1.134 and 1.063 | Carbamyl phosphate synthetase I [2]: 0.8575 and 0.7797 and 0.7692 | Carbonyl reductase [2]: 1.059 and 1.125 and 0.962 | Cathepsin L, sequence 2 [2]: 1.574 and 1.633 | Cofilin [2]: 0.9114 and 0.8537 and 0.8627 | Cyclin G [2]: 1.002 and 1.066 and 1.079 | DNA polymerase beta [2]: 1.046 and 1.107 | Dynamin-1 (D100) [2]: 0.9128 and 0.9717 and 0.9326 | Endogenous retroviral sequence, 5′ and 3′ LTR [2]: 1.21 and 0.7011 and 0.7797 | Enolase alpha [2]: 1.121 and 1.118 and 1.149 | Epidermal growth factor [2]: 1.003 and 1.092 and 1.144 | Equilbrative nitrobenzylthioinosine-sensitive nucleoside transporter [2]: 0.9518 and 0.8269 and 0.9012 | Extracellular-signal-regulated kinase 1 [2]: 1.5 and 1.071 and 0.8668 | Fas antigen [2]: 1.331 and 1.404 and 1.329 | Gadd45 [2]: 1.044 and 0.9552 and 1.022 | Gadd153 [2]: 1.008 and 0.989 and 0.9738 | Gamma-actin, cytoplasmic [2]: 1.252 and 1.167 and 1.207 | Glucose-regulated protein 78 [2]: 1.679 and 1.668 and 1.487 | Heme oxygenase [2]: 0.7677 and 0.7554 and 0.8649 | Hepatic lipase [2]: 0.7302 and 1.208 and 0.6736 | ID-1 [2]: 1.015 (2×) and 0.9098 | IgE binding protein [2]: 0.9374 and 0.898 | IkB-a [2]: 1.024 and 1.103 and 1.096 | Insulin-like growth factor I [2]: 0.6186 and 0.52 and 0.7677 | Insulin-like growth factor binding protein 1 [2]: 1.514 and 1.628 | Insulin-like growth factor binding protein 3 [2]: 0.6158 and 0.8747 | Integrin beta1 [2]: 1.29 and 1.37 and 1.335 | L-gulono-gamma-lactone oxidase [2]: 0.6365 and 0.6402 and 0.7055 | Liver fatty acid binding protein [2]: 0.8038 and 0.7393 and 0.8984 | MAP kinase kinase [2]: 1.002 and 1.108 | Macrophage inflammatory protein-2 alpha [2]: 1.093 and 1.12 and 1.177 | Matrin F/G [2]: 0.9519 and 0.9552 and 1.004 | Matrix metalloproteinase-1 [2]: 1.245 and 1.194 and 1.355 | Melanoma-associated antigen ME491 [2]: 1.089 and 0.9854 and 1.045 | Monocyte chemotactic protein receptor (CCR2) [2]: 1.034 and 1.086 and 1.071 | Multidrug resistant protein-2 [2]: 1.301 and 1.556 and 1.405 | N-hydroxy-2-acetylaminofluorene sulfotransferase (ST1C1) [2]: 0.7492 and 0.7954 and 0.8182 | Nucleoside diphosphate kinase beta isoform [2]: 1.36 and 1.288 and 1.362 | Organic anion transporter 3 [2]: 1.251 and 1.195 and 1.053 | Organic cation transporter 3 [2]: 1.211 and 1.277 and 1.36 | Ornithine decarboxylase [2]: 1.262 and 1.294 and 1.161 | PAR interacting protein [2]: 1.196 and 1.432 and 1.205 | Phase-1 RCT 252 [2]: 0.772 and 0.7405 | Phase-1 RCT-15 [2]: 1 | Phase-1 RCT-33 [2]: 1.288 | Phase-1 RCT-37 [2]: 1.101 | Phase-1 RCT-39 [2]: 1.631 and 1.876 and 2.263 | Phase-1 RCT-40 [2]: 0.9657 and 1.099 | Phase-1 RCT-48 [2]: 0.6407 | Phase-1 RCT-72 [2]: 0.9031 and 0.8598 | Phase-1 RCT-83 [2]: 0.7773 | Phase-1 RCT-88 [2]: 0.8891 | Phase-1 RCT-89 [2]: 0.9166 | Phase-1 RCT-102 [2]: 0.7133 and 0.4783 and 0.5208 | Phase-1 RCT-123 [2]: 0.9384 and 1.104 | Phase-1 RCT-137 [2]: 0.8817 | Phase-1 RCT-154 [2]: 1.303 | Phase-1 RCT-180 [2]: 1.296 | Phase-1 RCT-181 [2]: 0.9889 | Phase-1 RCT-182 [2]: 0.9123 | Phase-1 RCT-189 [2]: 0.8764 and 0.754 and 0.6881 | Phase-1 RCT-191 [2]: 1.599 | Phase-1 RCT-214 [2]: 0.9342 and 1.408 | Phase-1 RCT-239 [2]: 0.5982 and 0.595 | Phase-1 RCT-241 [2]: 1.293 | Phase-1 RCT-242 [2]: 0.9855 and 0.8679 and 0.8934 | Phase-1 RCT-256 [2]: 0.8602 | Phase-1 RCT-264 [2]: 0.5789 and 0.5647 and 0.5936 | Phase-1 RCT-270 [2]: 0.9344 and 0.9311 | Phase-1 RCT-271 [2]: 1.204 and 1.753 | Phase-1 RCT-291 [2]: 1.285 | Phase-1 RCT-296 [2]: 0.8165 | Proliferating cell nuclear antigen gene [2]: 1.007 and 0.9415 and 1.108 | Ribosomal protein L13A [2]: 1.209 and 1.299 | Ribosomal protein S8 [2]: 1.309 and 1.3 and 1.45 | Ribosomal protein S17 [2]: 1.52 | Senescence marker protein-30 [2]: 0.4601 and 0.4705 and 0.6829 | Sodium/bile acid cotransporter [2]: 2.871 and 2.806 and 2.757 | Superoxide dismutase Mn [2]: 1.266 and 1.52 and 1.416 | Thymosin beta-10 [2]: 0.9766 and 1.212 | Transthyretin [2]: 0.5528 and 0.5255 and 0.5896 | Ubiquitin conjugating enzyme (RAD 6 homologue) [2]: 1.202 and 1.253 and 1.239 | Uncoupling protein 2 [2]: 1.015 and 0.8977 and 1.15 | Zinc finger protein [2]: 0.9857 and 1.001 and 0.984 | c-jun [2]: 0.6641 and 0.6214 and 0.6871 | c-myc [2]: 1.056 and 0.76 and 0.7591 | p53 [2]: 1.049 and 1.111 and 0.9729 | {Ribosomal protein L6} [2]: 1.301 | Paraoxonase 1 (rat, in vivo): 0.7914 and 0.865 and 0.7219 and 0.8315 and 0.967
